Bridges are numbered along the chain shown (N, C = ends). Where no end group is shown, it is not given here.

Assay [1] concerns anti-β-FSH monoclonal antibodies 22A3G7; 5H3E8. Put plainly: Recognition by anti-β-FSH monoclonal antibodies 22A3G7 and 5H3E8. The class given is binding. The settings on record: antibodies immunoreactive with metrodine and ovarian extracts.
For assay [2], the system named is anti-β-FSH monoclonal antibody 7G5A1. Put plainly: Reaction with anti-β-FSH monoclonal antibody 7G5A1. The conditions noted are these: antibody only recognizing metrodine. It is filed as binding.
Assay [3] has as its system anti-ovary antibodies (AOA). Put plainly: ELISA on 30 patient sera: correlation of serum reactivity toward crude ovarian antigen and toward each peptide (Example 2). It is filed as binding, human. The conditions noted are these: for correlation between reactivity of sera toward ovarian antigen and toward the antigen tested, in words / r value, correlation between reactivity of sera toward ovarian antigen and toward the peptide, IgA AOA / r value, correlation between reactivity of sera toward ovarian antigen and toward the peptide, IgG AOA / r value, correlation between reactivity of sera toward ovarian antigen and toward the peptide, IgM AOA: 30 sera from patients, ELISA; for correlation between reactivity of sera toward ovarian antigen and toward the antigen tested, in words: compared among antigens; for r value, correlation between reactivity of sera toward ovarian antigen and toward the peptide, IgA AOA: isotype IgA; for r value, correlation between reactivity of sera toward ovarian antigen and toward the peptide, IgG AOA: isotype IgG; for r value, correlation between reactivity of sera toward ovarian antigen and toward the peptide, IgM AOA: isotype IgM; for antigenic or immunogenic activity toward anti-ovary antibodies, in words: comparison among oligopeptides, Example 2. The protocol: (§1) The concentration of molecules to be adsorbed was determined by checkerboard experiments for each antigen. It is about 1 μg per well.
(§2) The binding of the antigens to the solid phase is performed in one night at +4° C. in the amount of 100 μl per well of the solution of antigen in carbonate-bicarbonate buffer. The plate is emptied. The sites of the solid phase still unoccupied are saturated on incubation for one hour at 37° C. with 200 μl per well of 5% powdered milk reconstituted in PBS.
The plate is emptied and washed 3 times in PBS. The samples are distributed in the amount of 100 μl per well. The plate is incubated for 45 minutes at 37° C.
(§3) The anti-isotypes are diluted in the same solution that was used for the dilution of the samples:
(§4) The plate is again emptied and washed 3 times in PBS. Then the anti-isotypes are distributed in the amount of 100 μl per well. The plate is incubated for 45 minutes at 37° C.
(§5) The developer solution is prepared on the spot, as follows for one plate:
(§6) After 3 further washings of the plate, 100 μl of developer solution are distributed into each well. After appearance of a yellow colour of greater or lesser intensity the reaction is stopped with 50 μl of H2SO4. The plate is read on the spectrophotometer at 492 nm using the Multiskan II reader.
Any ratio greater than 1 is considered as positive.
These four peptides obtained in lyophilized form were, after reconstitution and dialysis, used as antigens in a series of ELISA tests on 30 sera from patients.
Moreover, these same sera were tested against the crude ovarian antigens.
The immunoenzymatic technique used is that described in Example 1.

Assay [4] has as its system anti-ovary antibodies (AOA). Put plainly: ELISA on 295 sera of IVF patients: correlation of reactivity toward total ovarian extract and toward peptide SEQ ID NO:1 (Example 3). The class given is binding, human. The settings on record: for r value, IgA AOA vs IgA SEQ ID No.1: crude ovarian antigen IgA vs peptide IgA. Here is the method: as §1, §2
The samples to be tested are diluted in PBS to which 0.5% BSA and 0.2% Tween 20 have been added: dilution to 1/50 for the search for anti-ovary and anti-corpus luteum antibodies. The plate is emptied and washed 3 times in PBS. The samples are distributed in the amount of 100 μl per well. The plate is incubated for 45 minutes at 37° C.
as §3, §4, §5, §6
The results are firstly expressed as optical density (O.D.) then calculated as ratios relative to a control sample at the limit of positivity. Any ratio greater than 1 is considered as positive.
[…] and ninety-five sera were tested in duplicate, using the immunoenzymatic method described above, with, firstly, the total ovarian extract, and, secondly, the peptide SEQ ID NO: 1. For each antigen, the three immunoglobulin isotypes IgG, IgA and IgM were studied.
The patients included in the study were all scheduled for IVF. Their average age was 32.7±4.2 years. The average duration of the sterility was 4.8±2.8 years.
In 209 cases the serum was collected on the eighth day of the stimulation, and in 84 cases the serum was collected 15 days after the puncture.
The results of the correlation obtained between the reactivity of the sera toward the crude ovarian antigen and that of the same sera toward the peptide SEQ ID NO:1 tested, and expressed by an r value, are shown in Table II below: […]

Assay [5] relates to anti-ovary antibodies. Put plainly: Recognition by serums containing anti-ovary antibodies. It is filed as binding.

“SEQ ID No.1: linear sequence of 16 amino acids corresponding to the sequence of amino acids 78-93 of the β-chain of FSH (VATQCHCGKCDSDSTD; human FSH)”: the “recognition by anti-β-FSH monoclonal antibodies 22A3G7; 5H3E8” value in assay [1] is “recognized”. The “reaction with anti-β-FSH monoclonal antibody 7G5A1” value in assay [2] is “does not react”. For the same molecule, in assay [3], the “correlation between reactivity of sera toward ovarian antigen and toward the antigen tested, in words” value (“correlation between reactivity … in words” below) is listed as “best correlation coefficients”; the “r value, correlation between reactivity of sera toward ovarian antigen and toward the peptide, IgA AOA” value is recorded as 0.46; the “r value, correlation between reactivity of sera toward ovarian antigen and toward the peptide, IgG AOA” value stood at 0.74; the “r value, correlation between reactivity of sera toward ovarian antigen and toward the peptide, IgM AOA” value is 0.81. Also, the “antigenic or immunogenic activity toward anti-ovary antibodies, in words” value in assay [3] is recorded as “identical activity”. The “r value, IgA AOA vs IgA SEQ ID No.1” value in assay [4] is 0.11. Also, the “r value, IgA AOA vs IgA SEQ ID No.1” value in assay [4] (listed as SEQ ID NO:1) came out at 0.10. In addition, the “r value, IgA AOA vs IgG SEQ ID No.1” value in assay [4] (crude ovarian antigen IgA vs peptide IgG) turned out to be 0.12. Besides, in assay [4] (crude ovarian antigen IgA vs peptide IgM), the “r value, IgA AOA vs IgM SEQ ID No.1” value worked out at 0.01. Besides, the “r value, IgG AOA vs IgA SEQ ID No.1” value in assay [4] (crude ovarian antigen IgG vs peptide IgA) amounted to 0.12. Moreover, the “r value, IgG AOA vs IgG SEQ ID No.1” value in assay [4] (crude ovarian antigen IgG vs peptide IgG) was 0.18. Moreover, the “r value, IgM AOA vs IgA SEQ ID No.1” value in assay [4] (crude ovarian antigen IgM vs peptide IgA) stood at 0.06. Further, the “r value, IgM AOA vs IgG SEQ ID No.1” value in assay [4] (crude ovarian antigen IgM vs peptide IgG) is recorded as 0.10. For the same molecule, the “r value, IgM AOA vs IgM SEQ ID No.1” value in assay [4] (crude ovarian antigen IgM vs peptide IgM) is given as 0.27. Also, in assay [5], the “recognition by serums containing anti-ovary antibodies” value is on record as “recognized”.

With “SEQ ID No.2: sequence of 16 amino acids, bridged by a disulfide bond in position 5 and 7, amino acids 78-93 of the β-chain of FSH (VATQCHCGKCDSDSTD; disulfide 5-7)”, in assay [3], the “r value, correlation between reactivity of sera toward ovarian antigen and toward the peptide, IgA AOA” value was 0.28; the “r value, correlation between reactivity of sera toward ovarian antigen and toward the peptide, IgG AOA” value came to 0.44; the “r value, correlation between reactivity of sera toward ovarian antigen and toward the peptide, IgM AOA” value was found to be 0.75; the “antigenic or immunogenic activity toward anti-ovary antibodies, in words” value was “weaker activity”.

For the molecule “SEQ ID No.3: sequence of 16 amino acids, bridged by a disulfide bond in position 5 and 10, amino acids 78-93 of the β-chain of FSH (VATQCHCGKCDSDSTD; disulfide 5-10)”, in assay [3], the “r value, correlation between reactivity of sera toward ovarian antigen and toward the peptide, IgA AOA” value is listed as 0.49; the “r value, correlation between reactivity of sera toward ovarian antigen and toward the peptide, IgG AOA” value worked out at 0.79; the “r value, correlation between reactivity of sera toward ovarian antigen and toward the peptide, IgM AOA” value was found to be 0.71; the “antigenic or immunogenic activity toward anti-ovary antibodies, in words” value was “weaker activity”.

Regarding “SEQ ID No.4: sequence of 16 amino acids, bridged by a disulfide bond in position 7 and 10, amino acids 78-93 of the β-chain of FSH (VATQCHCGKCDSDSTD; disulfide 7-10)”, in assay [3], the “r value, correlation between reactivity of sera toward ovarian antigen and toward the peptide, IgA AOA” value worked out at 0.49; the “r value, correlation between reactivity of sera toward ovarian antigen and toward the peptide, IgG AOA” value is 0.59; the “r value, correlation between reactivity of sera toward ovarian antigen and toward the peptide, IgM AOA” value is listed as 0.69; the “antigenic or immunogenic activity toward anti-ovary antibodies, in words” value is “weaker activity”.

Consider “TQCHCGKC (cysteine pairing not given here) [SEQ ID No.5]”, for which the “recognition by anti-β-FSH monoclonal antibodies 22A3G7; 5H3E8” value in assay [1] is recorded as “recognized”. Also, the “reaction with anti-β-FSH monoclonal antibody 7G5A1” value in assay [2] is “does not react”. In assay [3], the “correlation between reactivity … in words” value was “same results as those obtained for the peptide SEQ ID No.1”; the “antigenic or immunogenic activity toward anti-ovary antibodies, in words” value is “identical activity”. Moreover, in assay [5], the “recognition by serums containing anti-ovary antibodies” value is reported as “recognized”.

B1: β-chain of FSH: β-chain (β-subunit) of follicle stimulating hormone (protein)
chain: NSCELTNITIAIEKEECRFCISINTTWCAGYCYTRDLVYKDPARPKIQKTCTFKELVYETVRVPGCAHHADSLYTYPVATQCHCGKCDSDSTDCTVRGLGPSYCSFGEMKE
With B1, in assay [3], the “correlation between reactivity … in words” value is “same results as those obtained for the peptide SEQ ID No.1”.

The values are drawn from patent US6602853B1, “Antigenic peptides reacting with anti-ovary antibodies” (Bio Merieux, priority 1996, dated 2003).
